{
  "source": "patent US6316027A",
  "about": "“Fast-dissolving dosage forms for dopamine agonists” (priority 1995, dated 2001)",
  "origin": "cited, not measured here",
  "key": {"[1]": {"conditions": "acidic environment"}, "[2]": {"experiment": "not given", "remark": "listed apart in the source"}, "[3]": {"experiment": "not given", "remark": "listed apart in the source"}, "[4]": {"conditions": "sub-lingual tablets, prolonged use"}},
  "data": [
    {"compound": "CN1CCc2cccc3c2[C@H]1Cc1ccc(O)c(O)c1-3", "note": "[apomorphine, 5,6,6a,7-tetrahydro-6-methyl-4H-dibenzo quinoline-10; 11-diol]", "values": [
      {"measurement": "chemical stability", "setting": "[1]", "value": "optimal chemical stability in an acidic environment"},
      {"measurement": "nasal side effects", "setting": "intranasal", "value": "transient nasal blockage, burning sensation and swollen nose and lips"},
      {"measurement": "presystemic metabolism (first pass effect)", "setting": "oral tablets, small intestine and/or liver", "value": "extensive presystemic metabolism"},
      {"measurement": "blood urea nitrogen", "setting": "oral, long-term studies, stopped after 7-10 days", "value": "unexplained rises in blood urea nitrogen"},
      {"measurement": "buccal mucosal ulceration, share of patients", "setting": "[4]", "value": "half the patients"},
      {"measurement": "stomatitis", "setting": "[4]", "value": "severe stomatitis"},
      {"measurement": "dopamine agonist side effects", "setting": "subcutaneous", "value": "nausea and vomiting"}
    ]},
    {"compound": "N[C@@H](Cc1ccc(O)c(O)c1)C(=O)O", "note": "[levodopa]", "values": [
      {"measurement": "incidence of malignant melanoma", "setting": "[2]; patients undergoing treatment with levodopa", "value": "increased incidence of malignant melanoma"},
      {"measurement": "involuntary movements on prolonged use", "setting": "[2]; prolonged use", "value": "involuntary choreiform movements"},
      {"measurement": "fraction entering the brain", "setting": "[3]; in vivo", "value": "less than 1%"},
      {"measurement": "absorption from the small intestine", "setting": "[3]; oral", "value": "well absorbed from the small intestine"}
    ]}
  ]
}
